# Results taken from patent US20010047099A1, “4-aminopicolinates and their use as herbicides” (priority 2000, published 2001).
# Where two headings read alike, the source gives them in different places.
# Columns and labels:
# Assay type in all cases: in vivo
# [1] = test system: morningglory (Ipomoea hederacea); assay: Preemergence herbicidal activity; details: Ipomoea, 504 h, read-out: % Control IPOHE; for pest or weed control at 560 ppm: rate 560 ppm
# In short: (§1)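 Test compounds, dissolved in acetone/DMSO and diluted with 0.1 percent Tween 155 in water, are applied evenly to the surface of seeded soil (loam/sand, pH about 8.1) before emergence. Plants grow in the greenhouse for 3 weeks before visual rating against untreated controls on a 0-100 percent scale.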
# [2] = test system: velvetleaf (Abutilon theophrasti); assay: Preemergence herbicidal activity; details: Abutilon theophrasti, 504 h; for pest or weed control at 560 ppm: rate 560 ppm; for pest or weed control at 560 ppm / pest or weed control at 280 ppm: read-out: % Control ABUTH; for inhibition at 35 g/ha: pre-emergence, Table 7, rate 35 g/Ha
# In short: as §1
# [3] = test system: pigweed (Amaranthus retroflexus); assay: Preemergence herbicidal activity; details: Amaranthus retroflexus, 504 h; for pest or weed control at 560 ppm: rate 560 ppm; for pest or weed control at 560 ppm / pest or weed control at 280 ppm: read-out: % Control AMARE; for inhibition at 35 g/ha: pre-emergence, Table 7, rate 35 g/Ha
# In short: as §1
# [4] = test system: giant foxtail (Setaria faberi); assay: Postemergence herbicidal activity; details: post-emergence, 336 h
# In short: (§2)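 Plants are raised from seed under greenhouse conditions until the first or second true leaf appears. They are then sprayed with test solutions at known concentrations, where 1 ppm corresponds to roughly 1 g/Ha. Two weeks later, injury is rated by eye from 0 to 100%.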
# [5] = test system: wild buckwheat (Polygonum convolvulus); assay: Postemergence herbicidal activity; details: for pest or weed control at 250 ppm / inhibition at 125 ppm / pest or weed control at 125 ppm: Fallopia convolvulus, post-emergence, 336 h; for pest or weed control at 250 ppm / pest or weed control at 125 ppm: read-out: Post-emergent % Control POLCO; for inhibition at 125 ppm: Table 2, read-out: POSTMERGENCE HERBICIDAL ACTIVITY % CONTROL POLCO
# In short: as §2
# [6] = test system: cocklebur (Xanthium strumarium); assay: Postemergence herbicidal activity; details: Xanthium strumarium, post-emergence, 336 h; for pest or weed control at 250 ppm: rate 250 ppm; for pest or weed control at 250 ppm / pest or weed control at 125 ppm: read-out: Post-emergent % Control XANST; for inhibition at 125 ppm: Table 2, read-out: POSTMERGENCE HERBICIDAL ACTIVITY % CONTROL XANST
# In short: as §2
# [7] = test system: lambsquarters (Chenopodium album); assay: Postemergence herbicidal activity; details: for inhibition at 125 ppm: Chenopodium album, post-emergence, 336 h, Table 2, rate 125 ppm, after 2 weeks, read-out: POSTMERGENCE HERBICIDAL ACTIVITY % CONTROL CHEAL
# In short: as §2
# [8] = test system: chickweed (Stellaria media); assay: Postemergence herbicidal activity; details: for pest or weed control at 250 ppm / inhibition at 125 ppm / pest or weed control at 125 ppm: Stellaria media, post-emergence, 336 h; for pest or weed control at 250 ppm / pest or weed control at 125 ppm: read-out: Post-emergent % Control STEME; for inhibition at 125 ppm: Table 2, read-out: POSTMERGENCE HERBICIDAL ACTIVITY % CONTROL STEME
# In short: as §2
# viola (Viola tricolor) = assay: Postemergence herbicidal activity; details: post-emergence, 336 h
# In short: as §2
# [9] = test system: barnyardgrass (Echinochloa crus-galli); assay: Postemergence herbicidal activity; details: for inhibition at 125 ppm: Echinochloa crus-galli, post-emergence, 336 h, Table 2, rate 125 ppm, after 2 weeks, read-out: POSTMERGENCE HERBICIDAL ACTIVITY % CONTROL ECHCG; for post emergent evaluation - % control ECHCG: Table 3, weeds in rice, rate 250 ppm
# In short: as §2
# [10] = Table 6 (headed Post-emergent; text: preemergence), after 3 weeks
# [11] = after 3 weeks, read-out: PREEMERGENCE HERBICIDAL ACTIVITY % CONTROL ABUTH
# [12] = after 3 weeks, read-out: PREEMERGENCE HERBICIDAL ACTIVITY % CONTROL AMARE
# [13] = Table 2, rate 125 ppm, after 2 weeks, read-out: POSTMERGENCE HERBICIDAL ACTIVITY % CONTROL SETFA
# [14] = Table 1, rate 250 ppm, visual, after 2 weeks
# [15] = Table 2, rate 125 ppm, after 2 weeks, read-out: POSTMERGENCE HERBICIDAL ACTIVITY % CONTROL VIOTR
# [16] = Table 6 (headed Post-emergent; text: preemergence), rate 280 ppm, after 3 weeks
# [17] = Table 1, rate 125 ppm, visual, after 2 weeks
SMILES,"pest or weed control at 560 ppm [1, 10] [%]","pest or weed control at 560 ppm [2, 10] [%]","inhibition at 35 g/ha [2, 11] [%]","pest or weed control at 560 ppm [3, 10] [%]","inhibition at 35 g/ha [3, 12] [%]","inhibition at 125 ppm [4, 13] [%]","pest or weed control at 250 ppm [5, 14] [%]","inhibition at 125 ppm ([5]; rate 125 ppm, after 2 weeks) [%]","pest or weed control at 250 ppm ([6]; Table 1, visual, after 2 weeks) [%]","inhibition at 125 ppm ([6]; rate 125 ppm, after 2 weeks) [%]",inhibition at 125 ppm [7] [%],"pest or weed control at 250 ppm [8, 14] [%]","inhibition at 125 ppm ([8]; rate 125 ppm, after 2 weeks) [%]",inhibition at 125 ppm (viola (Viola tricolor); [15]) [%],inhibition at 125 ppm [9] [%],post emergent evaluation - % control ECHCG [9] [%],"pest or weed control at 280 ppm [1, 16] [%]","pest or weed control at 125 ppm [5, 17] [%]","pest or weed control at 125 ppm [6, 17] [%]","pest or weed control at 125 ppm [8, 17] [%]",also measured
"Nc1cc(Br)nc(C(=O)O)c1Cl [Compound 14, 4-Amino-6-bromo-3-chloropyridine-2-carboxylic acid]",100,100,100,90,100,65,50,100,85,100,95,90,65,75,65,65,–,–,–,–,"Post-emergent Evaluation - % control POLCO ([5]; Table 5, rate 250 ppm): 90%; Post-emergent Evaluation - % control CHEAL ([7]; Table 5, rate 250 ppm): 70%; Post-emergent Evaluation - % control STEME ([8]; Table 5, rate 250 ppm): 70%"
"COc1c(C(=O)O)nc(Br)c(Cl)c1N [Compound 42, 4-Amino-6-bromo-5-chloro-3-methoxypyridine-2-carboxylic acid]",100,100,80,100,60,–,90,–,85,–,–,90,–,–,–,–,–,–,–,–,–
"COC(=O)c1nc(Cl)cc(N)c1Cl [Compound 3, methyl 4-amino-3,6-dichloropyridine-2-carboxylate]",–,–,95,–,90,–,–,–,–,–,–,–,–,–,–,–,100,100,100,100,"pest or weed control at 280 ppm [2, 16]: 100%; pest or weed control at 280 ppm [3, 16]: 100%"
"CCOC(=O)c1nc(Cl)cc(N)c1Cl [Compound 4, ethyl 4-amino-3,6-dichloropyridine-2-carboxylate]",–,–,–,–,–,75,–,100,–,100,100,–,70,70,50,–,100,100,100,100,"pest or weed control at 280 ppm [2, 16]: 100%; pest or weed control at 280 ppm [3, 16]: 100%"
"Nc1cc(Cl)nc(C(=O)O)c1Cl [Compound 1, 4-Amino-3,6-dichloropyridine-2-carboxylic acid]",–,–,–,–,–,–,–,–,–,–,–,–,–,–,–,75,–,–,–,–,"pest or weed control at 280 ppm [1]: 100%; pest or weed control at 280 ppm [2]: 100%; inhibition at 35 g/ha ([2]; read-out: PR[…] % CONTROL ABUTH, after 3 weeks): 95%; pest or weed control at 280 ppm [3]: 100%; inhibition at 35 g/ha ([3]; read-out: PR[…] % CONTROL AMARE, after 3 weeks): 88%; inhibition at 125 ppm ([4]; read-out: PO[…] % CONTROL SETFA, Table 2, rate 125 ppm, after 2 weeks, read-out: POSTMERGENCE HERBICIDAL ACTIVITY % CONTROL SETFA): 75%; inhibition at 125 ppm ([5]; read-out: PO[…] % CONTROL POLCO, rate 125 ppm, after 2 weeks): 100%; pest or weed control at 125 ppm [5]: 100%; inhibition at 125 ppm ([6]; read-out: PO[…] % CONTROL XANST, rate 125 ppm, after 2 weeks): 100%; pest or weed control at 125 ppm [6]: 95%; inhibition at 125 ppm ([7]; read-out: PO[…] % CONTROL CHEAL): 100%; inhibition at 125 ppm ([8]; read-out: PO[…] % CONTROL STEME, rate 125 ppm, after 2 weeks): 90%; pest or weed control at 125 ppm [8]: 100%; inhibition at 125 ppm (viola (Viola tricolor); read-out: PO[…] % CONTROL VIOTR, Table 2, rate 125 ppm, after 2 weeks, read-out: POSTMERGENCE HERBICIDAL ACTIVITY % CONTROL VIOTR): 80%; inhibition at 125 ppm ([9]; read-out: PO[…] % CONTROL ECHCG): 45%"
"Nc1c(F)c(Cl)nc(C(=O)O)c1Cl [Compound 19, 4-Amino-3,6-dichloro-5-fluoropyridine-2-carboxylic acid]",100,100,–,100,–,20,–,100,–,95,95,–,60,50,10,–,–,100,95,95,–
